Test results reported in publication PMC10233829 (ACS Omega, 2023).
Converted amounts (≈) assume the structure as drawn.

How the values were obtained:
S. aureus NCTC 4163 = assay: MIC, twofold microdilution, standard strain; assay type: cell-based; details: Staphylococcus aureus, NCTC4163, 18 h
S. aureus ATCC 25923 = assay: MIC, twofold microdilution, standard strain; assay type: cell-based; details: Staphylococcus aureus, ATCC25923, 18 h
S. aureus ATCC 6538 = assay: MIC, twofold microdilution, standard strain; assay type: cell-based, Staphylococcus aureus; details: Staphylococcus aureus, ATCC6538; standard strain, 18 h
S. aureus ATCC 29213 = assay: MIC, twofold microdilution, standard strain; assay type: cell-based; details: Staphylococcus aureus, ATCC29213, 18 h
[1] = test system: S. epidermidis ATCC 12228; assay: MIC, twofold microdilution, standard strain; assay type: cell-based; details: Staphylococcus epidermidis, ATCC12228, 18 h
[2] = test system: S. epidermidis ATCC 35984; assay: MIC, twofold microdilution, standard strain; assay type: cell-based; details: Staphylococcus epidermidis, ATCC35984, 18 h
P. aeruginosa ATCC 15442 = assay: MIC, twofold microdilution, standard strain; assay type: cell-based, Pseudomonas aeruginosa; details: Pseudomonas aeruginosa, ATCC15442; standard strain, 18 h
E. coli ATCC 25922 = assay: MIC, twofold microdilution, standard strain; assay type: cell-based, Escherichia coli; details: Escherichia coli, ATCC25922; standard strain, 18 h
S. aureus 180 = assay: MIC, twofold microdilution, clinical strain; assay type: cell-based; details: Staphylococcus aureus, 18 h
S. aureus 5595 = assay: MIC, twofold microdilution, clinical strain; assay type: cell-based; details: Staphylococcus aureus, 18 h
S. aureus T5595 = assay: MIC, twofold microdilution, clinical strain; assay type: cell-based, Staphylococcus aureus; details: Staphylococcus aureus, T5595, 18 h
S. aureus T5591 = assay: MIC, twofold microdilution, clinical strain; assay type: cell-based, Staphylococcus aureus; details: Staphylococcus aureus, T5591, 18 h
S. epidermidis 4341 = assay: MIC, twofold microdilution, clinical strain; assay type: cell-based; details: Staphylococcus epidermidis, 18 h
S. epidermidis 5253 = assay: MIC, twofold microdilution, clinical strain; assay type: cell-based, Staphylococcus epidermidis; details: Staphylococcus epidermidis, 5253, 18 h
S. epidermidis KR4243/1 = assay: MIC, twofold microdilution, clinical strain; assay type: cell-based; details: Staphylococcus epidermidis, 18 h
S. pasteuri KR 4358 = assay: MIC, twofold microdilution, clinical strain; assay type: cell-based; details: Staphylococcus pasteuri, KR4358, 18 h
P. aeruginosa 37 = assay: MIC, twofold microdilution, clinical strain; assay type: cell-based; details: Pseudomonas aeruginosa, 18 h
P. aeruginosa 659 = assay: MIC, twofold microdilution, clinical strain; assay type: cell-based; details: Pseudomonas aeruginosa, 18 h
E. coli 951 = assay: MIC, twofold microdilution, clinical strain; assay type: cell-based; details: Escherichia coli, 18 h
E. coli 520 = assay: MIC, twofold microdilution, clinical strain; assay type: cell-based; details: Escherichia coli, 18 h
E. coli 600 = assay: MIC, twofold microdilution, clinical strain; assay type: cell-based, Escherichia coli; details: Escherichia coli, 600, 18 h
E. cloacae 8 = assay: MIC, twofold microdilution, clinical strain; assay type: cell-based, Escherichia cloacae; details: Enterobacter cloacae, 8; clinical strain, 18 h
K. pneumoniae 28 = assay: MIC, twofold microdilution, clinical strain; assay type: cell-based; details: Klebsiella pneumoniae, 18 h
K. pneumoniae 510 = assay: MIC, twofold microdilution, clinical strain; assay type: cell-based, Klebsiella pneumoniae; details: Klebsiella pneumoniae, 510; clinical strain, 18 h
M. tuberculosis H37Rv = assay: Tuberculostatic activity, Microplate Alamar Blue Assay (MIC); assay type: cell-based, Mycobacterium tuberculosis; details: Mycobacterium tuberculosis, H37RV; MABA; read-out: MIC M. tuberculosis H37Rv
[3] = test system: M. tuberculosis Spec. 192; assay: as above; assay type: cell-based; details: Mycobacterium tuberculosis, MABA, read-out: MIC M. tuberculosis Spec. 192 (sensitive to tuberculostatics)
M. tuberculosis Spec 210 = assay: microbe, parasite or virus in culture; assay type: cell-based, Mycobacterium tuberculosis; details: M. tuberculosis Spec. 210
PC3 cells = assay: MTT assay, cytotoxic activity; assay type: cell-based, human; details: Homo sapiens, PC-3, 72 h, MTT, 72 h
Procedure: Metastatic prostate cancer (PC3) and human immortal keratinocyte (HaCaT) cell lines were purchased from the American Type Culture Collection (ATCC, Rockville, MD, USA) and cultured in MEM (minimal essential medium, Thermo Sci, USA), RPMI 1640 (Roswell Park Memorial Institute, Biowest SAS, France), and DMEM (Dulbecco’s Modified Eagle’s Medium, Biowest SAS, France). Cells were seeded in 6 mL medium in a tissue culture flask (50 mL) in a 37 °C/5% CO2 humidified incubator. […] MTT analysis was performed according to a previous study.[59] Untreated cells were used as controls. Cell absorbance results were inserted into the formula for the relative MTT level (%). It allows to calculate the viability of cells under the influence of the tested compounds. Cell viability was expressed as the percentage of MTT reduction in cells treated with tested compounds compared to the control sample. The relative MTT level was calculated using the formula [100%] = A/B × 100% where A—the test sample absorbance and B—the control sample absorbance.

[4] = MTT assay, cytotoxic activity; assay type: cell-based; details: human, HaCaT cells (immortal keratinocytes); MTT, 72 h, normal cell line; read-out: IC50 HaCaT
Procedure: Cells were seeded in 6 mL medium in a tissue culture flask (50 mL) in a 37 °C/5% CO2 humidified incubator. […] MTT analysis was performed according to a previous study.[59] Untreated cells were used as controls. Cell absorbance results were inserted into the formula for the relative MTT level (%). It allows to calculate the viability of cells under the influence of the tested compounds. Cell viability was expressed as the percentage of MTT reduction in cells treated with tested compounds compared to the control sample. The relative MTT level was calculated using the formula [100%] = A/B × 100% where A—the test sample absorbance and B—the control sample absorbance.

[5] = test system: Staphylococci (standard strains); assay: MIC, standard Gram-positive strains as a panel; assay type: cell-based, S. aureus, S. epidermidis; details: standard Gram-positive strains of Table 1; read-out: MIC toward standard Staphylococci (range over strains)
[6] = test system: clinical bacterial strains; assay: MIC, clinical isolates as groups of strains; assay type: cell-based

| Structure (SMILES) | MIC (S. aureus NCTC 4163) | MIC (S. aureus ATCC 25923) | MIC (S. aureus ATCC 6538) | MIC (S. aureus ATCC 29213) | MIC [1] | MIC [2] | MIC (P. aeruginosa ATCC 15442) | MIC (E. coli ATCC 25922) | MIC (S. aureus 180) | MIC (S. aureus 5595) | MIC (S. aureus T5595) | MIC (S. aureus T5591) | MIC (S. epidermidis 4341) | MIC (S. epidermidis 5253) | MIC (S. epidermidis KR4243/1) | MIC (S. pasteuri KR 4358) | MIC (P. aeruginosa 37) | MIC (P. aeruginosa 659) | MIC (E. coli 951) | MIC (E. coli 520) | also measured |
| --- | --- | --- | --- | --- | --- | --- | --- | --- | --- | --- | --- | --- | --- | --- | --- | --- | --- | --- | --- | --- | --- |
| O=C(O)c1cn(C2CC2)c2cc(N3CCN(C(=O)CCCCCCCCCCBr)CC3)c(F)cc2c1=O [Compound 13, 7-[4-(11-Bromoundekanoyl)-piperazin-1-yl]-1-cyclopropyl-6-fluoro-4-oxo-1,4-dihydro-quinoline-3-carboxylic Acid] | 6.4 µg/mL (≈ 11.1 µM) | 12.8 µg/mL (≈ 22.1 µM) | 12.8 µg/mL (≈ 22.1 µM) | 12.8 µg/mL (≈ 22.1 µM) | 12.8 µg/mL (≈ 22.1 µM) | 12.8 µg/mL (≈ 22.1 µM) | > 25.6 µg/mL | 25.6 µg/mL (≈ 44.3 µM) | > 25.6 µg/mL | > 25.6 µg/mL | > 25.6 µg/mL | > 25.6 µg/mL | > 25.6 µg/mL | > 25.6 µg/mL | > 25.6 µg/mL | > 25.6 µg/mL | > 25.6 µg/mL | > 25.6 µg/mL | > 25.6 µg/mL | > 25.6 µg/mL | MIC (E. coli 600): > 25.6 µg/mL; MIC (E. cloacae 8): > 25.6 µg/mL; MIC (K. pneumoniae 28): > 25.6 µg/mL; MIC (K. pneumoniae 510): > 25.6 µg/mL; MIC (M. tuberculosis H37Rv): 2 µg/mL (≈ 3.46 µM); MIC [3]: 4 µg/mL (≈ 6.91 µM); fold more effective than the reference tuberculostatics (M. tuberculosis Spec 210): 8–32 fold; IC50 (PC3 cells): 33.7 ± 8.2 µM; IC50 at 72 h [4]: 93.4 ± 10.1 µM |
| O=C(O)c1cn(C2CC2)c2cc(N3CCN(C(=O)CCCC(F)(F)F)CC3)c(F)cc2c1=O [Compound 16, 7-[4-(5,5,5-Trifluoropentanoyl)-piperazin-1-yl]-1-cyclopropyl-6-fluoro-4-oxo-1,4-dihydro-quinoline-3-carboxylic Acid] | 0.2 µg/mL (≈ 0.426 µM) | 0.2 µg/mL (≈ 0.426 µM) | 0.2 µg/mL (≈ 0.426 µM) | 0.2 µg/mL (≈ 0.426 µM) | 0.2 µg/mL (≈ 0.426 µM) | 0.2 µg/mL (≈ 0.426 µM) | 1 µg/mL (≈ 2.13 µM) | 1.6 µg/mL (≈ 3.41 µM) | 1 µg/mL (≈ 2.13 µM) | 1 µg/mL (≈ 2.13 µM) | 0.4 µg/mL (≈ 0.852 µM) | 0.4 µg/mL (≈ 0.852 µM) | 25.6 µg/mL (≈ 54.5 µM) | > 25.6 µg/mL | 0.4 µg/mL (≈ 0.852 µM) | 0.4 µg/mL (≈ 0.852 µM) | > 25.6 µg/mL | > 25.6 µg/mL | > 25.6 µg/mL | 3.2 µg/mL (≈ 6.82 µM) | MIC (E. coli 600): 6.4 µg/mL (≈ 13.6 µM); MIC (E. cloacae 8): 8 µg/mL (≈ 17 µM); MIC (K. pneumoniae 28): > 25.6 µg/mL; MIC (K. pneumoniae 510): > 25.6 µg/mL; MIC (M. tuberculosis H37Rv): 64 µg/mL (≈ 136 µM); MIC [3]: 64 µg/mL (≈ 136 µM); IC50 (PC3 cells): 68.8 ± 9.9 µM; IC50 at 72 h [4]: > 100 µM; MIC [5]: 0.2 µg/mL (≈ 0.426 µM); share of the reference (CP) activity ([6]; S. aureus T5595 and T5591): 62.5% |
| O=C(O)c1cn(C2CC2)c2cc(N3CCN(CCCC(=O)N4CCN(c5cc6c(cc5F)c(=O)c(C(=O)O)cn6C5CC5)CC4)CC3)c(F)cc2c1=O [Compound 18, CP–Butyryl–CP Dimer] | 2 µg/mL (≈ 2.74 µM) | 4 µg/mL (≈ 5.47 µM) | 2 µg/mL (≈ 2.74 µM) | 4 µg/mL (≈ 5.47 µM) | 1 µg/mL (≈ 1.37 µM) | 16 µg/mL (≈ 21.9 µM) | 4 µg/mL (≈ 5.47 µM) | 16 µg/mL (≈ 21.9 µM) | 6.4 µg/mL (≈ 8.76 µM) | 6.4 µg/mL (≈ 8.76 µM) | 6.4 µg/mL (≈ 8.76 µM) | 6.4 µg/mL (≈ 8.76 µM) | > 25.6 µg/mL | > 25.6 µg/mL | 3.2 µg/mL (≈ 4.38 µM) | 3.2 µg/mL (≈ 4.38 µM) | 12.8 µg/mL (≈ 17.5 µM) | > 25.6 µg/mL | 6.4 µg/mL (≈ 8.76 µM) | 1.6 µg/mL (≈ 2.19 µM) | MIC (E. coli 600): 0.4 µg/mL (≈ 0.547 µM); MIC (E. cloacae 8): 0.8 µg/mL (≈ 1.09 µM); MIC (K. pneumoniae 28): > 25.6 µg/mL; MIC (K. pneumoniae 510): > 25.6 µg/mL; MIC (M. tuberculosis H37Rv): 8 µg/mL (≈ 10.9 µM); MIC [3]: 16 µg/mL (≈ 21.9 µM); fold more effective than the reference tuberculostatics (M. tuberculosis Spec 210): 2–8 fold; IC50 (PC3 cells): > 100 µM; IC50 at 72 h [4]: 92.2 ± 8.7 µM; MIC ([6]; clinical strains, read-out: MIC against selected E. coli and E. cloacae strains): 0.1 to 0.8 µg/mL (≈ 0.137 to 1.09 µM) |
